Here are results for 27 compounds from patent US10758534B2 (Vertex Pharmaceuticals Incorporated, priority 2014, dated 2020).

The structures appear in SMILES notation.

The assay deals with T1, F508del (Homo sapiens, UniProt P13569, DEL508-508).
T1 construct: expressed in transfected cells
In words: Protocol 1: membrane potential optical assay (FLIPR III, voltage sensing dye), identification of potentiator compounds. The format is cell-based. The settings on record: Table 3, compounds of Table 1. The method, boiled down: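 NIH3T3 F508del cells, 27° C × 24 hrs; compound/DMSO pretreat → redistribution dye load → single forskolin addition with Cl⁻ gradient (gluconate-substituted bath, HEPES pH 7.4). FLIPR III membrane-potential fluorescence read.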

T1 sequence (P13569 with tags, fused parts or gaps DEL508-508): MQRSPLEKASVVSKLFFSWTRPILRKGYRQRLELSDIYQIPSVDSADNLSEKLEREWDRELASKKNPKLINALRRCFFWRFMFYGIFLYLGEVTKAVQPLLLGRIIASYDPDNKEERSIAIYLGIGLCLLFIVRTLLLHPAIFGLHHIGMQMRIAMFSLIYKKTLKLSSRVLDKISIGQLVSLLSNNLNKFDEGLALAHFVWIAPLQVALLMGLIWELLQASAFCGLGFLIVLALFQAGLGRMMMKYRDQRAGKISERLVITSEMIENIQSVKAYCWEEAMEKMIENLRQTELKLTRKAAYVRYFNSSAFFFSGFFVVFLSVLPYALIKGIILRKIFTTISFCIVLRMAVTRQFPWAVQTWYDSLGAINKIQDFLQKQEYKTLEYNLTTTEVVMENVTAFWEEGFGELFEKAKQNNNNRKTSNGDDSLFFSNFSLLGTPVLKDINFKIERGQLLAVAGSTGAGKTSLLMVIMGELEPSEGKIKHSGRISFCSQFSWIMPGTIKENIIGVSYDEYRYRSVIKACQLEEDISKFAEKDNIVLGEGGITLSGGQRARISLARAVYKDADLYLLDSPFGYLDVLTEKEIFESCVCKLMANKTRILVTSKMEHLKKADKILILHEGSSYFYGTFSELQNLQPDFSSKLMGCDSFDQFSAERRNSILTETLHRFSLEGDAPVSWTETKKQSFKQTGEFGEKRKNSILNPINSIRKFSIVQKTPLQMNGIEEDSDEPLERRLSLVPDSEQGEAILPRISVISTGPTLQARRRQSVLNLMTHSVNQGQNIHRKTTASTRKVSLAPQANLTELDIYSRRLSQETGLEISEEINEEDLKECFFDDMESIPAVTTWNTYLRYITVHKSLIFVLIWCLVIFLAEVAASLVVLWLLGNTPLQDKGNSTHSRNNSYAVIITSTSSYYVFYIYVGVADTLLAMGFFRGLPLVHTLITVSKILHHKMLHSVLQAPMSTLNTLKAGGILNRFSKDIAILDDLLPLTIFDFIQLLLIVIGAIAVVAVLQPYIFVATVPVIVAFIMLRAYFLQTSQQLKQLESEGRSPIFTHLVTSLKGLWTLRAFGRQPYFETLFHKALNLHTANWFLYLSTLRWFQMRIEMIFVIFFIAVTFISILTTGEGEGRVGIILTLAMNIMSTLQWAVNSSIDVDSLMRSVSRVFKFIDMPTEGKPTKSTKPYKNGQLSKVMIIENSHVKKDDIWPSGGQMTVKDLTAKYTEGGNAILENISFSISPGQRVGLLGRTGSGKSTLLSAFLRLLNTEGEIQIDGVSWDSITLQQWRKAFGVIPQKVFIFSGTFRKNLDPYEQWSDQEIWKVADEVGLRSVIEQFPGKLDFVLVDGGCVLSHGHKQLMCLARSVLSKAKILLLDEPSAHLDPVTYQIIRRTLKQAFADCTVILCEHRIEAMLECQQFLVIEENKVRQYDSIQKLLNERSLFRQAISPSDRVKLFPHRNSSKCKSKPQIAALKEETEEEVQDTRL

As to `Cc1cc(C)c(Oc2nc(-c3cccc(OCC4CC4)c3)ccc2C(=O)NS(=O)(=O)c2ccc[nH]c2=O)c(C)c1` [Compound 1105, 6-[3-(cyclopropylmethoxy)phenyl]-N-[(2-oxo-1H-pyridin-3-yl)sulfonyl]-2-(2,4,6-trimethylphenoxy)pyridine-3-carboxamide], the EC30 result is “+ (“+” means greater than 10 uM)”.

Take `COc1ncc(-c2ccc(C(=O)NS(=O)(=O)c3nccnc3N)c(N3CCC(C)CC3)n2)cc1C` [Compound 1191, N-(3-aminopyrazin-2-yl)sulfonyl-6-(6-methoxy-5-methyl-3-pyridyl)-2-(4-methyl-1-piperidyl)pyridine-3-carboxamide]: the EC30 result was “++ (“++” means between 3 uM and 10 uM)”. As to `C[C@@H]1CN(c2nc(C3=CCCCO3)ccc2C(=O)NS(=O)(=O)c2cccc(N)n2)C(C)(C)C1` [Compound 1438, N-[(6-amino-2-pyridyl)sulfonyl]-6-(3,4-dihydro-2H-pyran-6-yl)-2-[(4S)-2,2,4-trimethylpyrrolidin-1-yl]pyridine-3-carboxamide], the EC30 entry is reported as “+++ (“+++” means <3 uM)”. For the compound `Cc1cc(C)c(Oc2nc(C)ccc2C(=O)NS(=O)(=O)c2cccc(N3CCN(C)CC3)n2)c(C)c1` [Compound 1018, 6-methyl-N-[[6-(4-methylpiperazin-1-yl)-2-pyridyl]sulfonyl]-2-(2,4,6-trimethylphenoxy)pyridine-3-carboxamide], the EC30 entry is “++ (“++” means between 3 uM and 10 uM)”.

Regarding `COc1cccc(S(=O)(=O)NC(=O)c2ccc(-c3cc(F)cc(OCC(C)C)c3)nc2N2CC(C)CC2(C)C)c1` (stereo not drawn) [Compound 1171, 6-(3-fluoro-5-isobutoxy-phenyl)-N-(3-methoxyphenyl)sulfonyl-2-(2,2,4-trimethylpyrrolidin-1-yl)pyridine-3-carboxamide], the EC30 entry is “+++ (“+++” means <3 uM)”. On to `CC(C)COc1cc(F)cc(-c2ccc(C(=O)NS(=O)(=O)c3cccc(N)n3)c(N3CCC(C)(C)[C@@H]3C)n2)c1` [Compound 1144, N-[(6-amino-2-pyridyl)sulfonyl]-6-(3-fluoro-5-isobutoxy-phenyl)-2-[(2S)-2,3,3-trimethylpyrrolidin-1-yl]pyridine-3-carboxamide], for which the EC30 result was “+++ (“+++” means <3 uM)”. Regarding `CC(C)COc1cc(F)cc(-c2cc(O)c(C(=O)NS(=O)(=O)c3cccc(N)n3)c(N3[C@H](C)CC[C@@H]3C)n2)c1` [Compound 1430, N-[(6-amino-2-pyridyl)sulfonyl]-2-[(2S,5R)-2,5-dimethylpyrrolidin-1-yl]-6-(3-fluoro-5-isobutoxy-phenyl)-4-hydroxy-pyridine-3-carboxamide], the EC30 entry is “+++ (“+++” means <3 uM)”. With `CC(C)COc1cc(F)cc(-c2ccc(C(=O)NS(=O)(=O)c3cccc(N)n3)c(N3CCC(C)C(C)C3)n2)c1` (single isomer, unassigned) [Compound 1863, N-[(6-amino-2-pyridyl)sulfonyl]-2-(3,4-dimethyl-1-piperidyl)-6-(3-fluoro-5-isobutoxy-phenyl)pyridine-3-carboxamide], the EC30 result is listed as “+++ (“+++” means <3 uM)”. Regarding `Cc1cc(C)c(CN2Cc3ccccc3C2(C)C(=O)NS(=O)(=O)c2cccc(N)c2)c(C)c1` (stereo not drawn) [Compound 1273, N-(3-aminophenyl)sulfonyl-1-methyl-2-[(2,4,6-trimethylphenyl)methyl]isoindoline-1-carboxamide], the EC30 entry is recorded as “+++ (“+++” means <3 uM)”.

For `Cc1cc(C)c(Oc2nc(C(C)(C)C)ccc2C(=O)NS(=O)(=O)c2c(C)cc[nH]c2=O)c(C)c1` [Compound 1311, 6-tert-butyl-N-[(4-methyl-2-oxo-1H-pyridin-3-yl)sulfonyl]-2-(2,4,6-trimethylphenoxy)pyridine-3-carboxamide], the EC30 result is “+++ (“+++” means <3 uM)”. As to `CCOc1cccc2c1CN(Cc1cc(F)cc(OCC(C)C)c1)C2(C)C(=O)NS(=O)(=O)c1cccc(N)n1` (stereo not drawn) [Compound 1681, N-[(6-amino-2-pyridyl)sulfonyl]-4-ethoxy-2-[(3-fluoro-5-isobutoxy-phenyl)methyl]-1-methyl-isoindoline-1-carboxamide], the EC30 result is given as “+++ (“+++” means <3 uM)”. The value for `CC(C)COc1cc(F)cc(-c2ccc(C(=O)NS(=O)(=O)c3cccc(N)n3)c(N(C)CC3(C)CC3)n2)c1` [Compound 1009, N-[(6-amino-2-pyridyl)sulfonyl]-6-(3-fluoro-5-isobutoxy-phenyl)-2-[methyl-[(1-methylcyclopropyl)methyl]amino]pyridine-3-carboxamide] was “+++ (“+++” means <3 uM)”. For the compound `CC1CN(c2ncccc2C(=O)NS(=O)(=O)c2cccc(Oc3ccc(F)c(Cl)c3)n2)C(C)(C)C1` (stereo not drawn) [Compound 1831, N—[[6-(3-chloro-4-fluoro-phenoxy)-2-pyridyl]sulfonyl]-2-(2,2,4-trimethylpyrrolidin-1-yl)pyridine-3-carboxamide], the EC30 entry is on record as “+++ (“+++” means <3 uM)”. The value for `COc1cccc(-c2ccc(C(=O)NS(=O)(=O)c3ccc[nH]c3=O)c(N3C[C@@H](C)CC3(C)C)n2)c1OC` [Compound 1786, 6-(2,3-dimethoxyphenyl)-N-[(2-oxo-1H-pyridin-3-yl)sulfonyl]-2-[(4S)-2,2,4-trimethylpyrrolidin-1-yl]pyridine-3-carboxamide] was “++ (“++” means between 3 uM and 10 uM)”. The value for `CC1CN(c2nc(C(C)(C)C)c(-c3cnn(C)c3)cc2C(=O)NS(=O)(=O)c2cccc(N)n2)C(C)(C)C1` (stereo not drawn) [Compound 1441, N-[(6-amino-2-pyridyl)sulfonyl]-6-tert-butyl-5-(1-methylpyrazol-4-yl)-2-(2,2,4-trimethylpyrrolidin-1-yl)pyridine-3-carboxamide] was “++ (“++” means between 3 uM and 10 uM)”; that for `CC(C)COc1ccccc1-c1cnc(N2CC(C)CC2(C)C)c(C(=O)NS(=O)(=O)c2cccc(N)n2)c1` (stereo not drawn) [Compound 1979, N-[(6-amino-2-pyridyl)sulfonyl]-5-(2-isobutoxyphenyl)-2-(2,2,4-trimethylpyrrolidin-1-yl)pyridine-3-carboxamide] was “+++ (“+++” means <3 uM)”. Regarding `COc1ccccc1COc1cccc(S(=O)(=O)NC(=O)c2cccnc2N2CC(C)CC2(C)C)n1` (stereo not drawn) [Compound 1965, N-[[6-[(2-methoxyphenyl)methoxy]-2-pyridyl]sulfonyl]-2-(2,2,4-trimethylpyrrolidin-1-yl)pyridine-3-carboxamide], the EC30 result is recorded as “+++ (“+++” means <3 uM)”. The value for `CC(C)COc1cc(F)cc(-c2ccc(C(=O)NS(=O)(=O)c3cccc(N)n3)c(N3CC(C)CCC3C)n2)c1` (single isomer, unassigned) [Compound 1993, N-[(6-amino-2-pyridyl)sulfonyl]-2-(2,5-dimethyl-1-piperidyl)-6-(3-fluoro-5-isobutoxy-phenyl)pyridine-3-carboxamide] was “+++ (“+++” means <3 uM)”; that for `Cc1cc(C)c(Oc2nc(-c3ccc4c(c3)OCO4)ccc2C(=O)NS(=O)(=O)c2cccc(N)n2)c(C)c1` [Compound 1207, N-[(6-amino-2-pyridyl)sulfonyl]-6-(1,3-benzodioxol-5-yl)-2-(2,4,6-trimethylphenoxy)pyridine-3-carboxamide] was “+++ (“+++” means <3 uM)”. For `CC(C)COc1cccc(-c2ccc(C(=O)NS(=O)(=O)c3ccc[nH]c3=O)c(N3CCC(C)CC3)n2)c1` [Compound 958, 6-(3-isobutoxyphenyl)-2-(4-methyl-1-piperidyl)-N-[(2-oxo-1H-pyridin-3-yl)sulfonyl]pyridine-3-carboxamide], the EC30 entry was “+++ (“+++” means <3 uM)”. The value for `CC(CO)COc1cc(F)cc(-c2ccc(C(=O)NS(=O)(=O)c3ccccc3)c(N3C[C@@H](C)CC3(C)C)n2)c1` (stereo partly drawn) [Compound 1515, N-(benzenesulfonyl)-6-[3-fluoro-5-(3-hydroxy-2-methyl-propoxy)phenyl]-2-[(4S)-2,2,4-trimethylpyrrolidin-1-yl]pyridine-3-carboxamide] was “+++ (“+++” means <3 uM)”; that for `C[C@@H]1CN(c2nc(C3=CC(C)(C)OCC3)ccc2C(=O)NS(=O)(=O)c2cccc(N)n2)C(C)(C)C1` [Compound 1369, N-[(6-amino-2-pyridyl)sulfonyl]-6-(6,6-dimethyl-2,3-dihydropyran-4-yl)-2-[(4S)-2,2,4-trimethylpyrrolidin-1-yl]pyridine-3-carboxamide] was “+++ (“+++” means <3 uM)”. `CC(C)(C)COc1cccc(-c2ccc(C(=O)NS(=O)(=O)c3cccc(N)n3)c(N3CCCC3(C)C)n2)n1` [Compound 1328, N-[(6-amino-2-pyridyl)sulfonyl]-6-[6-(2,2-dimethylpropoxy)-2-pyridyl]-2-(2,2-dimethylpyrrolidin-1-yl)pyridine-3-carboxamide]: the EC30 result is “+++ (“+++” means <3 uM)”. As to `CC(C)COc1cc(F)cc(-c2ccc(C(=O)NS(=O)(=O)c3cccc(N)n3)c(OC3CCCC3(C)C)n2)c1` (stereo not drawn) [Compound 1629, N-[(6-amino-2-pyridyl)sulfonyl]-2-(2,2-dimethylcyclopentoxy)-6-(3-fluoro-5-isobutoxy-phenyl)pyridine-3-carboxamide], the EC30 entry is reported as “+++ (“+++” means <3 uM)”. Regarding `Cc1cc(C)c(Oc2nc(C(C)C)ccc2C(=O)NS(=O)(=O)c2cccc(N)n2)c(C)c1` [Compound 1232, N-[(6-amino-2-pyridyl)sulfonyl]-6-isopropyl-2-(2,4,6-trimethylphenoxy)pyridine-3-carboxamide], the EC30 entry was “+++ (“+++” means <3 uM)”. As to `Cc1cc(C)c(Oc2nc(C3(C)CC3)ccc2C(=O)NS(=O)(=O)c2ccc[nH]c2=O)c(C)c1` [Compound 1226, 6-(1-methylcyclopropyl)-N-[(2-oxo-1H-pyridin-3-yl)sulfonyl]-2-(2,4,6-trimethylphenoxy)pyridine-3-carboxamide], the EC30 entry was “+++ (“+++” means <3 uM)”. With `Cc1cccc(C)c1Cn1c(C(=O)NS(=O)(=O)c2ccccc2)cc2cccnc21` [Compound 1291, N-(benzenesulfonyl)-1-[(2,6-dimethylphenyl)methyl]pyrrolo[2,3-b]pyridine-2-carboxamide], the EC30 result is “++ (“++” means between 3 uM and 10 uM)”.
